Results: patent EP0703222A1, “3-AMINOAZEPINE COMPOUND AND PHARMACEUTICAL USE THEREOF” (YOSHITOMI PHARMACEUTICAL INDUSTRIES, LTD., priority 1993, dated 1994)

What was measured:
CCK-B receptor = molecular target: T1, CCK-B receptor (Rattus norvegicus, UniProt P30553); test: CCK-B receptor binding test (brain); conditions: for Ki: rat cerebral cortex membranes, 125I-CCK-8, 20°C, 30 minutes, read-out: binding affinity (Ki,nM) CCK-B; for selectivity (A/B): ratio CCK-A / CCK-B binding affinity
T1 construct: cerebral cortex from rat was prepared and suspended in a buffer; from tissue; host or cells: rat cerebral cortex membrane suspension
T1 sequence (P30553 1-452): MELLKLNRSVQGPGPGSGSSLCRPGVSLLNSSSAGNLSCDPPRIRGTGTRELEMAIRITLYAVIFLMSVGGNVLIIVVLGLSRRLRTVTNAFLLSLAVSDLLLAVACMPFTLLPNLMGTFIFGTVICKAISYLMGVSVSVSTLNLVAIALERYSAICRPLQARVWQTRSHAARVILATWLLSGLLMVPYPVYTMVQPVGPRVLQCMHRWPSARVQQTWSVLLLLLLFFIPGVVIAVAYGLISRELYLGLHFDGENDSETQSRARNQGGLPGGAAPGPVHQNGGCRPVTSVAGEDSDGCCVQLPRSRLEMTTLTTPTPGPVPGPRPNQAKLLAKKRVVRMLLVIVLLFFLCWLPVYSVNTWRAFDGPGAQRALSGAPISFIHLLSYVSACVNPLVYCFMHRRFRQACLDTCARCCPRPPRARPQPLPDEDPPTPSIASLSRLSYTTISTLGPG
Description: Experimental Example 2 : CCK-B receptor binding test (brain)
In the case of the central nervous system, cerebral cortex from rat was prepared and suspended in a buffer, pH 6.5, containing 5 mM magnesium chloride, 1 mM EGTA [ethylene glycol bis(2-aminoethylether)tetraacetic acid], 360 mM sodium chloride, 15 mM potassium chloride, 20 mM HEPES (N-2-hydroxyethylpiperazine-N'-2-ethanesulfonic acid) and 0.25 mg/ml bacitracin. For binding assay, 50 µl of a buffer (for total binding), unlabeled CCK-8 sulfate (for nonspecific binding) having a final concentration of 1 µM or a test compound (for determining inhibition of ¹²⁵I-CCK binding) and 50 µl of ¹²⁵I-CCK-8 (63-67 TBq/mmol, 40,000 - 50,000 cpm) were added to a membrane suspension (450 µl, containing 100 µg protein). The reaction mixture was incubated at 20°C for 30 minutes, filtered by suction through a glass fiber filter (Whatman GF/B), and immediately thereafter washed 3 times with ice-cooled Tris buffer (2.5 ml). The radioactive concentration on the filter was measured.
(§1) Inhibition (%) = 100 -((binding when compound added - nonspecific binding))/((total binding - nonspecific binding))× 100 [formula]

CCK-A receptor = molecular target: T2, CCK-A receptor (Rattus norvegicus, UniProt P30551); test: CCK-A receptor binding test (pancreas); conditions: for Ki: rat pancreas membranes, 125I-CCK-8, 20°C, 30 minutes, read-out: binding affinity (Ki,nM) CCK-A; for affinity for CCK-A receptor (in words): summary of the binding results in the text
T2 construct: The whole pancreas was removed from a male rat; from tissue; host or cells: rat pancreas membrane homogenate
T2 sequence (P30551 1-444): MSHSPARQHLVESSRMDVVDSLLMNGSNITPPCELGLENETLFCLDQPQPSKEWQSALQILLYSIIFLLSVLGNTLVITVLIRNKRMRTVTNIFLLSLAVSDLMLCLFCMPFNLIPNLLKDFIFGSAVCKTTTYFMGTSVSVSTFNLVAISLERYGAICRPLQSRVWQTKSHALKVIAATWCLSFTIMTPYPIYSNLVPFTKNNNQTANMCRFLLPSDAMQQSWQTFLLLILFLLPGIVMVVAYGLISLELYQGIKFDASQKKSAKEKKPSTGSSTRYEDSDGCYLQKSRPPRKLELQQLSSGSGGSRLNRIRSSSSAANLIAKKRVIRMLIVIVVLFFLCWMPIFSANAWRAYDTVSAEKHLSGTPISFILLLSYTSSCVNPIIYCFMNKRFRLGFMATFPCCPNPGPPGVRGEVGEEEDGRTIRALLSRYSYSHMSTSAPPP
Description: Experimental Example 1 : CCK-A receptor binding test (pancreas)
The whole pancreas was removed from a male rat. The fat tissues were removed and the pancreas was homogenized (Brinkman Polytron PT20) in 50 mM Tris hydrochloric acid (pH 7.5). The homogenate was filtered through a nylon cloth (120 mesh) and centrifuged at 50,000 × g for 12 minutes. The obtained sediment was homogenized in Tris buffer as in the above and centrifuged. The sediment was suspended in a buffer for binding assay [50 mM Tris-HCl (pH 7.2) containing 5 mM magnesium chloride, 5 mM dithiothreitol, 2 mg/ml bovine serum albumin, 0.1 mg/ml bacitracin and 0.14 mg/ml trypsin inhibitor (soybean)] and used as a receptor source.
For binding assay, 50 µl of a buffer (for total binding), unlabeled CCK-8 sulfate (for nonspecific binding) having a final concentration of […] or a test compound (for determining inhibition of ¹²⁵I-CCK binding) and 50 µl of ¹²⁵I-CCK-8 (63-67 TBq/mmol, 40,000-50,000 cpm) were added to a membrane suspension (450 µl, containing 100 µg protein). The reaction mixture was incubated at 20°C for 30 minutes, filtered by suction through a glass fiber filter (Whatman GF/B), and immediately thereafter washed 3 times with ice-cooled Tris buffer (2.5 ml). The radioactive concentration on the filter was measured.
as §1

SMILES | Ki (CCK-B receptor) | selectivity (A/B) (CCK-B receptor) | Ki (CCK-A receptor) | affinity for CCK-A receptor (in words) (CCK-A receptor)
COc1ccc(NC(=O)NC2C=C(c3ccccc3)c3ccccc3N(CC(=O)c3ccccc3C)C2=O)cc1 (single isomer, unassigned; (-)) [Example 68, (-)-1-(4-methoxyphenyl)-3-(1-(2'-methylphenacyl)-2-oxo-5-phenyl-2,3-dihydro-1H-1-benzazepin-3-yl)urea] | 1.1 nM | 140 | 150 nM | 
CCOC(=O)CN1C(=O)C(NC(=O)Nc2ccc(C)cc2)C=C(c2ccccc2)c2ccccc21 (single isomer, unassigned; (-)) [Example 48, (-)-1-(1-ethoxycarbonylmethyl-2-oxo-5-phenyl-2,3-dihydro-1H-1-benzazepin-3-yl)-3-(4-methylphenyl)urea] | 2.1 nM | 100 | 210 nM | 
CCOC(=O)CN1C(=O)C(NC(=O)Nc2cccc(OC)c2)C=C(c2ccccc2)c2ccccc21 (single isomer, unassigned; (-)) [Example 52, (-)-1-(1-ethoxycarbonylmethyl-2-oxo-5-phenyl-2,3-dihydro-1H-1-benzazepin-3-yl)-3-(3-methoxyphenyl)urea] | 0.92 nM | 120 | 110 nM | 
CCOC(=O)CN1C(=O)C(NC(=O)Nc2cccc(C)c2)C=C(c2ccccc2)c2ccccc21 (single isomer, unassigned; (-)) [Example 46, (-)-1-(1-ethoxycarbonylmethyl-2-oxo-5-phenyl-2,3-dihydro-1H-1-benzazepin-3-yl)-3-(3-methylphenyl)urea] | 0.87 nM | 110 | 100 nM | 
Cc1ccc(NC(=O)NC2C=C(c3ccccc3)c3ccccc3N(CC(=O)c3ccccc3C)C2=O)cc1 (single isomer, unassigned; (-)) [Example 64, (-)-1-(1-(2'-methylphenacyl)-2-oxo-5-phenyl-2,3-dihydro-1H-1-benzazepin-3-yl)-3-(4-methylphenyl)urea] | 1.1 nM | 180 | 200 nM | 
CN1C(=O)C(NC(=O)c2cc3ccccc3[nH]2)C=C(c2ccccc2)c2ccccc21 (single isomer, unassigned; (+)) [Example 36, (+)-N-(1-methyl-2-oxo-5-phenyl-2,3-dihydro-1H-1-benzazepin-3-yl)-2-indolecarboxamide] | > 1000 nM | <0.0047 | 4.7 nM | strong, selective affinity for CCK-A receptor
Cc1cccc(NC(=O)N[C@@H]2N=C(c3ccccc3)c3ccccc3N(C)C2=O)c1 [Example L-365260, (R)-N-(2,3-dihydro-1-methyl-2-oxo-5-phenyl-1H-1,4-benzodiazepin-3-yl)-N'-(3-methylphenyl)urea, reference compound] | 19 nM | 21 | 390 nM | 
Cc1ccccc1C(=O)CN1C(=O)C(NC(=O)Nc2ccccc2Cl)C=C(c2ccccc2)c2ccccc21 (single isomer, unassigned; (-)) [Example 74, (-)-1-(2-chlorophenyl)-3-(1-(2'-methylphenacyl)-2-oxo-5-phenyl-2,3-dihydro-1H-1-benzazepin-3-yl)urea] | 2.4 nM | 120 | 290 nM | 
Cc1ccccc1NC(=O)NC1C=C(c2ccccc2)c2ccccc2N(CC(=O)c2ccccc2C)C1=O (single isomer, unassigned; (-)) [Example 66, (-)-1-(1-(2'-methylphenacyl)-2-oxo-5-phenyl-2,3-dihydro-1H-1-benzazepin-3-yl)-3-(2-methylphenyl)urea] | 2.5 nM | 124 | 310 nM | 
Cc1ccccc1C(=O)CN1C(=O)C(NC(=O)c2cc3ccccc3[nH]2)C=C(c2ccccc2)c2ccccc21 (single isomer, unassigned; (+)) [Example 81, (+)-N-(1-(2'-methylphenacyl)-2-oxo-5-phenyl-2,3-dihydro-1H-1-benzazepin-3-yl)-2-indole carboxamide] | > 1000 nM | <0.042 | 42 nM | strong, selective affinity for CCK-A receptor
